Reference: PubChem BioAssay (NCI)
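Cells were grown in 96-well plates and exposed to each compound for 48 hours at five concentrations; endpoints were interpolated linearly between bracketing concentrations, or set to the highest concentration if not reached. At the TGI there is no net growth.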

Key:
Assay in all cases: DTP human tumour cell line panel, 48 h
PC-3 prostate = system: PC-3 prostate
A498 renal = system: A498 renal
BT-549 breast = system: BT-549 breast
MDA-N = system: MDA-N
EKVX NSCLC = system: EKVX NSCLC
HOP-92 NSCLC = system: HOP-92 NSCLC
ACHN renal = system: ACHN renal
M14 melanoma = system: M14 melanoma
OVCAR-3 ovarian = system: OVCAR-3 ovarian
A549 NSCLC = system: A549 NSCLC
SF-268 CNS = system: SF-268 CNS

SMILES | TGI (PC-3 prostate) [µM] | TGI (A498 renal) [µM] | TGI (BT-549 breast) [µM] | TGI (MDA-N) [µM] | TGI (EKVX NSCLC) [µM] | TGI (HOP-92 NSCLC) [µM] | TGI (ACHN renal) [µM] | TGI (M14 melanoma) [µM] | TGI (OVCAR-3 ovarian) [µM] | TGI (A549 NSCLC) [µM] | TGI (SF-268 CNS) [µM]
Cn1c(=O)c2c(nc3n2CCCC(=O)N3CC(O)CCl)n(C)c1=O (stereo not drawn) | > 100 | > 100 | > 100 | > 100 | > 100 | > 100 | > 100 | > 100 | > 100 | > 100 | > 100
NC(=O)Cc1nc2c(N)ncnc2n1C1OC(CO)C(O)C1O (stereo not drawn) | > 100 | > 100 | > 100 | > 100 | > 100 | > 100 | > 100 | > 100 | > 100 | > 100 | > 100
CCOC(=O)C(Cc1ccc(OC(=O)c2ccc(OC)cc2)cc1)NC(=O)C(F)(F)F (stereo not drawn) | > 100 | > 100 | > 100 | > 100 | > 100 | > 100 | > 100 | > 100 | > 100 | > 100 | > 100
CC1(C)Cc2nc3c(cc2C(=O)C1C=N/C(C#N)=C(\N)C#N)C(=O)C(C=N/C(C#N)=C(\N)C#N)C(C)(C)C3 (stereo not drawn) | 5.35 | 15.4 | 5.51 | 11.8 | 6.01 | 3.33 | 5.87 | 3.05 | 11 | 8.31 | 3.39
CC(C)C(=O)Nc1cc(C(F)(F)F)ccc1[N+](=O)[O-] | > 100 | > 100 | > 100 | > 100 | > 100 | > 100 | > 100 | > 100 | > 100 | > 100 | > 100
NC(=O)NCCCC(NC(=O)OCCCCCCn1ccc(=O)[nH]c1=O)C(=O)O (stereo not drawn) | > 100 |  | > 100 | > 100 | > 100 | > 100 | > 100 | > 100 | > 100 | > 100 | > 100
O=[N+]([O-])C(=C(N1CCOCC1)N1CCOCC1)/C(Cl)=C(\Cl)Br | > 100 | > 100 | 28.8 | 70.6 | 37.9 | 31 | 54 | 28.3 | 28.5 | > 100 | 81.3
CN(/N=C/c1cccc2cccnc12)c1ccc(Cl)cc1[N+](=O)[O-] | > 100 | > 100 | > 100 | > 100 | > 100 | > 100 | > 100 | > 100 | > 100 | > 100 | > 100
COc1cc(NCCC2CCCCN2)c2ncccc2c1 (stereo not drawn) | > 100 | > 89.6 | > 100 | > 100 | > 100 | > 100 | > 100 | 44.9 | > 62.7 | > 100 | > 100
